Source: patent US11506670B2, “Method of genome-wide direct identification of electrophile-sensing targets” (Cornell University, priority 2018, dated 2022)

Columns and labels:
[1] = system: NF-κB-signaling (Ube2V1); assay: NF-κB dual luciferase reporter assay after T-REX on Halo-Ube2V1; format: cell-based, human; details: T-REX HNEylation of Ube2V1, coexpression of Ube2N
Description: 1.5-1.6×10^5 HEK 293T cells were seeded in each well of a 48-well plate. 24 h later, the cells were transfected with 120 ng of the designated HaloTag fusion gene plasmid and 120 ng of NF-kB-Firefly luciferase: pCMV-Renilla luciferase (40:1) mix, using TransIT-2020 transfection agent. 24 h post-transfection, cells were treated with 25 μM Ht-PreHNE or vehicle (corresponding volume of DMSO alone) for 2.5 h, rinsed three times and irradiated with 365 nm UV light for 10 min. The cells were incubated for a further 8 h. For dual luciferase assay, cells in each well were gently washed with 1×DPBS and lysed in 65 μL of 1× passive lysis buffer containing in final concentrations 25 mM Tris (pH 7.8), 2 mM 1,2-CDTA, 2 mM DTT, 1 mg/mL BSA, 1% Triton X-100, and 10% Glycerol. 20 μL of the lysate was transferred to a white opaque 96-well plate (Corning). Firefly luciferase was read after adding 50 μL Firefly substrate (75 mM HEPES pH 8.0, 4 mM MgSO4, 20 mM DTT, 0.1 mM EDTA, 0.53 mM ATP, 0.27 mM Coenzyme-A, 0.47 mM D-Luciferin Firefly). Subsequently, 50 μL of Stop and Glow substrate (7.5 mM sodium acetate pH 5.0, 400 mM sodium sulfate, 10 mM CDTA, 15 mM sodium pyrophosphate, 0.025 mM APMBT, 5.5 μM Coelenterazine) was added and Renilla luciferase activity was measured.

[2] = system: Nrf2-AR pathway; assay: Flow cytometry ARE-GFP reporter assay; format: cell-based, human
Description: (i) Transient transfection using TransIT-2020. Perform the transfection as described in Step 40 Option (C) (i). Briefly: Transfect the cells with ARE:GFP, pFN21a-Halo-Keap1, and pcDNA3.1 myc-Nrf2 in a 3:1:1 ratio by mass. For transient transfection of cells in a single well of a 48-well plate, in 26 μL of antibiotic-free, serum-free media add 156 ng of ARE:GFP, 52 ng of pFN21a-Halo-TEV-Keap1, and 52 ng of pcDNA3.1 myc-Nrf2 (260 ng total) followed by the addition of 0.78 μL of TransIT-2020. The lipoplex is mixed gently and incubated at room temperature for 20 min.
(iv) Treatment of cells with T-REX™ delivery photocaged precursor and photo-uncaging (TIMING: 7 hours). […]
In this flow cytometry assay, live cells are first gated by forward (size) and side scatter to give a general population of healthy cells (FIG. 26A). […] Analyzing this scatter group for green fluorescence (AR reporter) told a slightly different story to that painted by previous ensemble experiments (Parvez et al., “Substoichiometric Hydroxynonenylation of a Single Protein Recapitulates Whole-Cell-Stimulated Antioxidant Response,” J. Am. Chem. Soc. 137:10-13 (2015); Lin et al., “A Generalizable Platform for Interrogating Target- and Signal-Specific Consequences of Electrophilic Modifications in Redox-Dependent Cell Signaling,” J. Am. Chem. Soc. 137:6232-44 (2015), which are hereby incorporated by reference in their entirety).

For `CCCCCC(O)/C=C/C=O` (stereo not drawn) [HNE, 4-hydroxynonenal], the “upregulation in NF-κB-signaling relative to all controls” value [1] was 3 fold, the “AR-driven GFP signal” value ([2]; T-REX delivery on Halo-Keap1) was “increase in AR in all but cells with the highest basal AR” and the “AR-driven GFP signal” value ([2]; whole-cell HNE treatment) was “strongly increases AR in a subset of cells”.
